Test results from patent publication US12721801B2, “Compositions and methods relating to stimulation of hyaluronic acid” (Alastin Skincare, Inc., priority 2020, dated 2026).

Assays:
[1] = test system: Hyaluronidase 2 (HYAL2); assay: Gene expression study (RNA sequencing), HYAL2 expression in keratinocytes; type: cell-based; settings: human keratinocytes, 24 hours of compound exposure, FIG. 3
Protocol: (§1) Cell Lines. Human adult dermal fibroblast and keratinocyte cell lines were treated with 11 different compound treatments (plus DMSO control as treatment #12). Primary fibroblasts, keratinocytes sourced from ZenBio. Primary cells were plated in cell specific media at 5K or 10K cells per cm^2 as per ZenBio instructions. Cells were plated in 48 well plates (Greiner) in triplicate, one cell line per plate. Media volume was 500 ul per well. Outer two columns of wells were not used. All rows were used. Cells were cultured for 2 days in 37° C. 5% CO2 incubator. After 48 hours all the cell cultures were uniform and appeared healthy, no appreciable number of floating dead cells or evidence of vacuolization of cells that might indicate apoptotic or dying cells.
(§2) Compounds. Stocks of compounds 1 through 8 on the list below were prepared in PBS at 100× the concentration indicated in red type. […] This stock was 100× of final concentration. A 20 mg/ml stock of compound 10 (CBD) was prepared in DMSO. […] This stock was 200× of final concentration.
(§3) Dosing. After 48 hours of attachment culture, fibroblasts and keratinocytes were treated with the test compounds. […]
(§4) RNA Lysate preparation. […] All samples were shipped frozen on dry ice to MedGenome for RNA extraction, library construction and sequencing to 25M paired end 100 bp reads per sample. […]

[2] = test system: Hyaluronic Acid Synthase 2 (HAS2); assay: Gene expression study (RNA sequencing), HAS2 expression in keratinocytes; type: cell-based; settings: human keratinocytes, 24 hours of compound exposure, FIG. 2
Protocol: as §1, §2, §3, §4

[3] = test system: human fibroblast cells; assay: HA production assessment, SDS-PAGE of fibroblast supernatants; type: cell-based; settings: Experiment 2, primary adult human dermal fibroblasts, 72 hours, octapeptide 100 ug/mL, SymDecanox 250 ug/mL, others 500 ug/mL, FIG. 6
Protocol: In a second experiment, HA production was also assessed with the test compounds below. Briefly, primary adult human dermal fibroblast cells were cultured until near confluent in 6 well plates. The cells were treated with the compounds and concentrations indicated to the right. After 72 hours, 100 μL of media were collected from each treatment condition and was concentrated in a SpeedVac concentrator to a final volume of ~10 uL.
All 10 μL of the supernatants were loaded onto an acrylamide gel (NuPAGE 4-12% Bis-Tris Protein Gel) and run at 200V for 3 hours. The gel was stained to detect the presence of HA. Data is seen in FIG. 6. […] Lane 11 is the negative control, representing the untreated cells. This band represents the cells constitutive level of HA. Treating the cells with all the indicated compounds (lanes 1-10) produced an increased level of high molecular weight HA. […]

[4] = Preparation of compound stocks in DMSO (dissolution observed); type: physicochemical
Protocol: as §2

Hexapeptide-11: hexapeptide test agent; FVAPFP (SEQ ID NO: 19) is printed as a hexapeptide sequence, not tied explicitly
Hyaluronidase 2 (HYAL2) expression in keratinocytes [1]: potent downregulation | HAS2 expression in keratinocytes [2]: excellent upregulation

phosphatidylserine
Level of high molecular weight HA (band on gel) [3]: secrete high molecular weight HA | Dissolution of stock in DMSO ([4]; 50 mg/ml stock in DMSO, extensive vortexing and warming): did not fully go into solution

CCCCCCCC(=O)CCc1ccc(O)c(OC)c1 [SymDecanox™, hydroxymethoxyphenyl decanone]
Level of high molecular weight HA (band on gel) [3]: secrete high molecular weight HA

C=C(C)[C@@H]1CCC(C)=C[C@H]1c1c(O)cc(CCCCC)cc1O [CBD]
Dissolution of stock in DMSO ([4]; 20 mg/ml stock in DMSO): slightly cloudy

tetradecyl-diaminobutyroylvalyldiaminobutyric urea trifluoroacetate [SynHycan]
Level of high molecular weight HA (band on gel) [3]: secrete high molecular weight HA
